Source: patent US20030144249A1, “Use of organophosphorous compounds for producing a medicament for treating infections” (priority 2000, published 2003)
One block for each compound: values may come before it.

Columns and labels:
Echinochloa = assay: Herbicidal activity, water, pre-emergence; format: in vivo; conditions: Water
Experimental: (§1) Herbicidal activity is determined using standard methods.
(§2) Substances 1 to 8 listed on page 5 are again investigated.

Solanum = assay: Herbicidal activity, water, pre-emergence; format: in vivo; conditions: Water
Experimental: as §1, §2

Lepidium = assay: Herbicidal activity, water, pre-emergence; format: in vivo; conditions: Water
Experimental: as §1, §2

Rice = assay: Herbicidal activity, water, pre-emergence; format: in vivo; conditions: Oryza sativa, Water
Experimental: as §1, §2

Galium aperine [1] = assay: Herbicidal activity, soil, post-emergence; format: in vivo; conditions: Soil, post-emergence
Experimental: as §1, §2

Sinapis arvensis [2] = assay: Herbicidal activity, soil, post-emergence; format: in vivo; conditions: Mutarda arvensis, Soil, post-emergence
Experimental: as §1, §2

Abutilon theophrasti [3] = assay: Herbicidal activity, soil, post-emergence; format: in vivo; conditions: Soil, post-emergence
Experimental: as §1, §2

Cyperus esculentus [4] = assay: Herbicidal activity, soil, post-emergence; format: in vivo; conditions: Soil, post-emergence
Experimental: as §1, §2

Setaria viridis [5] = assay: Herbicidal activity, soil, post-emergence; format: in vivo; conditions: Soil, post-emergence
Experimental: as §1, §2

Beta vulgaris [6] = assay: Herbicidal activity, soil, post-emergence; format: in vivo; conditions: Soil, post-emergence
Experimental: as §1, §2

Avena fatua [7] = assay: Herbicidal activity, soil, post-emergence; format: in vivo; conditions: Soil, post-emergence
Experimental: as §1, §2

Zea mays [8] = assay: Herbicidal activity, soil, post-emergence; format: in vivo; conditions: Soil, post-emergence
Experimental: as §1, §2

Alopecurus myosuroides [9] = assay: Herbicidal activity, soil, post-emergence; format: in vivo; conditions: Soil, post-emergence
Experimental: as §1, §2

Amaranthus retroflexus [10] = assay: Herbicidal activity, soil, post-emergence; format: in vivo; conditions: Soil, post-emergence
Experimental: as §1, §2

Xanthium strumarium [11] = assay: Herbicidal activity, soil, post-emergence; format: in vivo; conditions: Soil, post-emergence
Experimental: as §1, §2

Plasmodium falciparum = assay: Antimalarial activity, in vitro culture, [3H]-hypoxanthine incorporation; format: cell-based; conditions: 72 h, asynchronous culture, 48 h + 24 h with [3H]-hypoxanthine, read-out: IC50 (nM) of malaria culture (Plasmodium falciparum)
Experimental: The antimalarial activity of substances 1 to 8 (see page 5) was determined using in vitro cultures of the causative organism of malaria, Plasmodium falciparum. 200 μl of an asynchronous Plasmodium falciparum culture with a 0.4% blood parasite content and a heamatocrit of 2% were loaded into each of the wells of a 96 well microtitre plate. A serial dilution series of the compounds was then prepared in steps of three between concentrations of 100 and 0.14 μmol l^−1. The plates were incubated at 37° C., 3% CO2 and 5% O2 over a period of 48 hours. 30 μl of medium supplemented with 27 μCi ml^−1 of [^3H]-hypoxanthine were then added to each well. After 24 hours' incubation, the parasites were harvested by filtration through glass fibre filters and the incorporated radioactivity was measured. Inhibition of parasite growth was measured as the percentage inhibition of tritium incorporation. Inhibition of parasite growth was expressed as the percentage inhibition of tritium incorporation relative to a comparison without the substance. The median inhibitory concentration (IC50) of the substance was determined by extrapolating the values.

[12] = biological target: T1, DOXP reductoisomerase from Helicobacter pylori (Helicobacter pylori, UniProt P56139); assay: DOXP reductoisomerase inhibition (NADPH oxidation at 365 nm); format: biochemical; conditions: recombinant enzyme; 0.3 mM NADPH, 1 mM DOXP, pH 7.5; read-out: IC50 (nM) of DOXP reductoisomerase from Helicobacter pylori
T1 construct: made in house; host or cells: Helicobacter pylori (so in the source)
T1 sequence (P56139 1-368): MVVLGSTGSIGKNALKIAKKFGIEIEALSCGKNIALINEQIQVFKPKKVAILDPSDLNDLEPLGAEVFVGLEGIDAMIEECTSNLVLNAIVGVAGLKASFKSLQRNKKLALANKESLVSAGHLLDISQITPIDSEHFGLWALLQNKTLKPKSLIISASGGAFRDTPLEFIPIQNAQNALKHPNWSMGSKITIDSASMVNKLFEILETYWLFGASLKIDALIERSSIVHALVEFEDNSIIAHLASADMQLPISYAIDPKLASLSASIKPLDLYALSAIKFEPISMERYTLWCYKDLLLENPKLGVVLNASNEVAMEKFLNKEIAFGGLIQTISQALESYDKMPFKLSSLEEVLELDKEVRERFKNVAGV
Experimental: The DOXP reductoisomerase of Helicobacter pylori was expressed as a recombinant protein in Helicobacter pylori. The activity of DOXP reductoisomerase was determined in a batch containing 100 mM tris-HCl (pH=7.5), 1 mM MnCl2, 0.3 mM NADPH and 1 mM DOXP.
The oxidation of NADPH was here measured at 365 nm in a spectrophotometer. The inhibition studies were performed by measuring the activity of DOXP reductoisomerase in the presence of compounds 1 to 8 (see page 5) at various concentrations between 0. 1 and 100 μmol l^−1.

Galium aperine [13] = assay: Herbicidal activity, soil, pre-emergence; format: in vivo; conditions: Soil, pre-emergence
Experimental: as §1, §2

Sinapis arvensis [14] = assay: Herbicidal activity, soil, pre-emergence; format: in vivo; conditions: Mutarda arvensis, Soil, pre-emergence
Experimental: as §1, §2

Abutilon theophrasti [15] = assay: Herbicidal activity, soil, pre-emergence; format: in vivo; conditions: Soil, pre-emergence
Experimental: as §1, §2

Cyperus esculentus [16] = assay: Herbicidal activity, soil, pre-emergence; format: in vivo; conditions: Soil, pre-emergence
Experimental: as §1, §2

Setaria viridis [17] = assay: Herbicidal activity, soil, pre-emergence; format: in vivo; conditions: Soil, pre-emergence
Experimental: as §1, §2

Beta vulgaris [18] = assay: Herbicidal activity, soil, pre-emergence; format: in vivo; conditions: Soil, pre-emergence
Experimental: as §1, §2

Avena fatua [19] = assay: Herbicidal activity, soil, pre-emergence; format: in vivo; conditions: Soil, pre-emergence
Experimental: as §1, §2

Zea mays [20] = assay: Herbicidal activity, soil, pre-emergence; format: in vivo; conditions: Soil, pre-emergence
Experimental: as §1, §2

Alopecurus myosuroides [21] = assay: Herbicidal activity, soil, pre-emergence; format: in vivo; conditions: Soil, pre-emergence
Experimental: as §1, §2

Amaranthus retroflexus [22] = assay: Herbicidal activity, soil, pre-emergence; format: in vivo; conditions: Soil, pre-emergence
Experimental: as §1, §2

Xanthium strumarium [23] = assay: Herbicidal activity, soil, pre-emergence; format: in vivo; conditions: Soil, pre-emergence
Experimental: as §1, §2

[24] = 2000 gram/hectare, read-out: Herbicidal activity, Galium aperine
[25] = 2000 gram/hectare, read-out: Herbicidal activity, Sinapis arvensis
[26] = 2000 gram/hectare, read-out: Herbicidal activity, Abutilon theophrasti
[27] = 2000 gram/hectare, read-out: Herbicidal activity, Cyperus esculentus
[28] = 2000 gram/hectare, read-out: Herbicidal activity, Setaria viridis
[29] = 2000 gram/hectare, read-out: Herbicidal activity, Beta vulgaris
[30] = 2000 gram/hectare, read-out: Herbicidal activity, Avena fatua
[31] = 2000 gram/hectare, read-out: Herbicidal activity, Zea mays
[32] = 2000 gram/hectare, read-out: Herbicidal activity, Alopecurus myosuroides
[33] = 2000 gram/hectare, read-out: Herbicidal activity, Amaranthus retroflexus
[34] = 2000 gram/hectare, read-out: Herbicidal activity, Xanthium strumarium

- IC50 (Plasmodium falciparum): 420 nM
- IC50 [12]: 60 nM
Structure (SMILES): CP(C)(=O)CNCN(O)C(=O)c1ccccc1 [Compound 2, N-(N-Benzoyl-N-hydroxyaminomethyl)aminomethyldimethylphosphine oxide]
- pest or weed control at 1000 g/ha (Echinochloa; 1000 gram/hectare): 0%
- pest or weed control at 1000 g/ha (Solanum; 1000 gram/hectare): 0%
- pest or weed control at 1000 g/ha (Lepidium; 1000 gram/hectare): 30%
- plant injury at 1000 g/ha (Rice; 1000 gram/hectare): 30%
- pest or weed control at 500 g/ha (Galium aperine [1]; 500 gram/hectare): 60%
- pest or weed control at 500 g/ha (Sinapis arvensis [2]; 500 gram/hectare): 80%
- pest or weed control at 500 g/ha (Abutilon theophrasti [3]; 500 gram/hectare): 50%
- pest or weed control at 500 g/ha (Cyperus esculentus [4]; 500 gram/hectare): 0%
- pest or weed control at 500 g/ha (Setaria viridis [5]; 500 gram/hectare): 90%
- plant injury at 500 g/ha (Beta vulgaris [6]; 500 gram/hectare): 50%
- pest or weed control at 500 g/ha (Avena fatua [7]; 500 gram/hectare): 70%
- plant injury at 500 g/ha (Zea mays [8]; 500 gram/hectare): 70%
- pest or weed control at 500 g/ha (Alopecurus myosuroides [9]; 500 gram/hectare): 60%
- pest or weed control at 500 g/ha (Amaranthus retroflexus [10]; 500 gram/hectare): 0%
- pest or weed control at 500 g/ha (Xanthium strumarium [11]; 500 gram/hectare): 50%
- pest or weed control at 500 g/ha (Galium aperine [13]; 500 gram/hectare): 0%
- pest or weed control at 500 g/ha (Sinapis arvensis [14]; 500 gram/hectare): 60%
- pest or weed control at 500 g/ha (Abutilon theophrasti [15]; 500 gram/hectare): 0%
- pest or weed control at 500 g/ha (Cyperus esculentus [16]; 500 gram/hectare): 0%
- pest or weed control at 500 g/ha (Setaria viridis [17]; 500 gram/hectare): 0%
- plant injury at 500 g/ha (Beta vulgaris [18]; 500 gram/hectare): 50%
- pest or weed control at 500 g/ha (Avena fatua [19]; 500 gram/hectare): 0%
- plant injury at 500 g/ha (Zea mays [20]; 500 gram/hectare): 0%
- pest or weed control at 500 g/ha (Alopecurus myosuroides [21]; 500 gram/hectare): 0%
- pest or weed control at 500 g/ha (Amaranthus retroflexus [22]; 500 gram/hectare): 0%
- pest or weed control at 500 g/ha (Xanthium strumarium [23]; 500 gram/hectare): 0%

- IC50 (Plasmodium falciparum): 1100 nM
- IC50 [12]: 300 nM
Structure (SMILES): CN(CC(=O)P(C)(C)=O)CN(O)C(=O)C(F)(F)F [Compound 7, 2-(N-(N-Trifluoracetyl-N-hydroxyaminomethyl)-N-methyl)amino-1-oxoethyldimethylphosphine oxide]
- pest or weed control at 4000 g/ha (Echinochloa; 4000 gram/hectare, read-out: Herbicidal activity, Echinochloa): 40%
- pest or weed control at 4000 g/ha (Solanum; 4000 gram/hectare, read-out: Herbicidal activity, Solanum): 30%
- pest or weed control at 4000 g/ha (Lepidium; 4000 gram/hectare, read-out: Herbicidal activity, Lepidium): 40%
- plant injury at 4000 g/ha (Rice; 4000 gram/hectare, read-out: Herbicidal activity, Rice): 30%
- pest or weed control at 2000 g/ha (Galium aperine [1]; [24]): 70%
- pest or weed control at 2000 g/ha (Sinapis arvensis [2]; [25]): 70%
- pest or weed control at 2000 g/ha (Abutilon theophrasti [3]; [26]): 50%
- pest or weed control at 2000 g/ha (Cyperus esculentus [4]; [27]): 0%
- pest or weed control at 2000 g/ha (Setaria viridis [5]; [28]): 90%
- plant injury at 2000 g/ha (Beta vulgaris [6]; [29]): 50%
- pest or weed control at 2000 g/ha (Avena fatua [7]; [30]): 80%
- plant injury at 2000 g/ha (Zea mays [8]; [31]): 70%
- pest or weed control at 2000 g/ha (Alopecurus myosuroides [9]; [32]): 80%
- pest or weed control at 2000 g/ha (Amaranthus retroflexus [10]; [33]): 50%
- pest or weed control at 2000 g/ha (Xanthium strumarium [11]; [34]): 90%
- pest or weed control at 2000 g/ha (Galium aperine [13]; [24]): 0%
- pest or weed control at 2000 g/ha (Sinapis arvensis [14]; [25]): 30%
- pest or weed control at 2000 g/ha (Abutilon theophrasti [15]; [26]): 0%
- pest or weed control at 2000 g/ha (Cyperus esculentus [16]; [27]): 0%
- pest or weed control at 2000 g/ha (Setaria viridis [17]; [28]): 0%
- plant injury at 2000 g/ha (Beta vulgaris [18]; [29]): 70%
- pest or weed control at 2000 g/ha (Avena fatua [19]; [30]): 30%
- plant injury at 2000 g/ha (Zea mays [20]; [31]): 30%
- pest or weed control at 2000 g/ha (Alopecurus myosuroides [21]; [32]): 30%
- pest or weed control at 2000 g/ha (Amaranthus retroflexus [22]; [33]): 20%
- pest or weed control at 2000 g/ha (Xanthium strumarium [23]; [34]): 0%
